US6579705B2, “Process for preparing non-proteinogenic L-amino acids” (Consortium fur Elektrochemische Industrie GmbH, priority 2001, dated 2003)

How the values were obtained:
[1] = molecular target: T1, O-acetyl-L-serine sulfhydrylase CysK (Escherichia coli, UniProt P0ABK5); format: biochemical; details: pH 7
T1 construct: StrepTagII (WSHPQFEK) (C); made in house; host or cells: E. coli BLR21(DE3) carrying pLE4 (T7 promoter, pRSET5a)
Method: (§1) In order to use the O-acetyl-L-serine sulfhydrylases to prepare non-proteinogenic amino acids, other nucleophilic compounds were used in the reaction in place of sulfide or thiosulfate. In order to detect them, a precolumn derivatization for amino acids was carried out using ortho-phthaldialdehyde. Using this method, it was possible to carry out a broad screening for suitable nucleophilic substrates.
(§2) The mixtures contained 4 mM O-acetyl-L-serine (added from a 200 mM stock solution in 500 mM Nasuccinate buffer, pH 5.5), 20 mM nucleophilic compound, 100 mM K phosphate buffer, pH 7.0, and 5 μg of purified enzyme/ml. The reaction was stopped with 1/100th the volume of acetic acid (96% v/v) and analyzed by HPLC using a HP aminoquant column (200 mm×2.1 mm) in accordance with the manufacturer's instructions supplied by Hewlett Packard, Waldbronn, Germany.

[2] = molecular target: T2, O-acetyl-L-serine sulfhydrylase CysM (Escherichia coli, UniProt P16703); format: biochemical; details: pH 7
T2 construct: StrepTagII (WSHPQFEK) (C); made in house; host or cells: E. coli DH5alpha carrying pFL145 (tet promoter, pASK-IBA3)
Method: as §1, §2

[3] = cited from earlier work
[4] = format: biochemical, Escherichia coli; details: 10 mM O-acetyl-serine, pH 7.0, 37° C., 5 μg purified enzyme/ml; for specific activity Acys (formation of cysteine using sulfide): 10 mM sodium sulfide
Method: The activity of O-acetyl-L-serine sulfhydrylases is measured by detecting the “natural” reaction product L-cysteine (Cys) or alternatively, in the case of CysM, also by detecting the reaction product as S-sulfo-L-cysteine (S-Cys). Both products can be detected very specifically and very sensitively using the test described by Gaitonde (1967, Biochem. J. 104: 627-633).
A typical test mixture contained 10 mM O-acetyl-serine (added from a 200 mM stock solution in 500 mM sodium succinate buffer, pH 5.5), 10 mM sodium sulfide or sodium thiosulfate, 100 mM potassium phosphate buffer, pH 7.0, and 5 μg of purified enzyme/ml, and is incubated at 37° C. The specific activity, A, is given in units/mg of protein, i.e. in μmol of product×min^−1×mg^−1 of protein. Acys denotes the specific activity of the formation of cysteine using sulfide. AS-Cys denotes the specific activity of the formation of S-sulfocysteine using thiosulfate. The specific activities using the proteins isolated in example 2 were: […]

T1 sequence (P0ABK5 whole entry, looked up): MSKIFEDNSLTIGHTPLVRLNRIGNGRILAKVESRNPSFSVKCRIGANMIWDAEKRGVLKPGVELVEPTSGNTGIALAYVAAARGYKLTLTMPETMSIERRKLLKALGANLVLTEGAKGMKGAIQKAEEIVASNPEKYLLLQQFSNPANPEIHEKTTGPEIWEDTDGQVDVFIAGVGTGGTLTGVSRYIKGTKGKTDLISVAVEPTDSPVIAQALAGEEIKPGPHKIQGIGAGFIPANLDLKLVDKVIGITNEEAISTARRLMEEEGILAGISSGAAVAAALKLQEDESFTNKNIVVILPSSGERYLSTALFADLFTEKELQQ

Molecule | CysK conversion [1] | CysM conversion [2] | also measured
c1ccc2[nH]nnc2c1 [1,2,3-Benzotriazole] | ++ (key: +++: conversion greater than 70% after 30 min; ++: conversion greater than 40% after 30 min; +: conversion greater than 10% after 30 min; −: conversion less than 5% after 30 min) | + (key: +++: conversion greater than 70% after 30 min; ++: conversion greater than 40% after 30 min; +: conversion greater than 10% after 30 min; −: conversion less than 5% after 30 min) | –
[SeH2] [Sodium selenide] | +++ (key: +++: conversion greater than 70% after 30 min; ++: conversion greater than 40% after 30 min; +: conversion greater than 10% after 30 min; −: conversion less than 5% after 30 min) | +++ (key: +++: conversion greater than 70% after 30 min; ++: conversion greater than 40% after 30 min; +: conversion greater than 10% after 30 min; −: conversion less than 5% after 30 min) | –
O[C@@H](CS)[C@@H](O)CS (racemic) [Dithiothreithol] | +++ (key: +++: conversion greater than 70% after 30 min; ++: conversion greater than 40% after 30 min; +: conversion greater than 10% after 30 min; −: conversion less than 5% after 30 min) | +++ (key: +++: conversion greater than 70% after 30 min; ++: conversion greater than 40% after 30 min; +: conversion greater than 10% after 30 min; −: conversion less than 5% after 30 min) | –
CC(=O)OC[C@H](N)C(=O)O [O-Acetyl-L-serine] | – | – | stability toward isomerization ([3]; pH 4.0): stable; rate of isomerization to N-acetyl-L-serine ([3]; pH 7.6): 1 %×min^−1
c1nn[nH]n1 [1,2,3,4-Tetrazole] | +++ (key: +++: conversion greater than 70% after 30 min; ++: conversion greater than 40% after 30 min; +: conversion greater than 10% after 30 min; −: conversion less than 5% after 30 min) | ++ (key: +++: conversion greater than 70% after 30 min; ++: conversion greater than 40% after 30 min; +: conversion greater than 10% after 30 min; −: conversion less than 5% after 30 min) | –
[N-]=[N+]=[N-].[Na+] [Sodium azide] | +++ (key: +++: conversion greater than 70% after 30 min; ++: conversion greater than 40% after 30 min; +: conversion greater than 10% after 30 min; −: conversion less than 5% after 30 min) | +++ (key: +++: conversion greater than 70% after 30 min; ++: conversion greater than 40% after 30 min; +: conversion greater than 10% after 30 min; −: conversion less than 5% after 30 min) | –
Sc1ccccc1 [Thiophenol] | ++ (key: +++: conversion greater than 70% after 30 min; ++: conversion greater than 40% after 30 min; +: conversion greater than 10% after 30 min; −: conversion less than 5% after 30 min) | +++ (key: +++: conversion greater than 70% after 30 min; ++: conversion greater than 40% after 30 min; +: conversion greater than 10% after 30 min; −: conversion less than 5% after 30 min) | –
OCCS [Mercaptoethanol] | +++ (key: +++: conversion greater than 70% after 30 min; ++: conversion greater than 40% after 30 min; +: conversion greater than 10% after 30 min; −: conversion less than 5% after 30 min) | +++ (key: +++: conversion greater than 70% after 30 min; ++: conversion greater than 40% after 30 min; +: conversion greater than 10% after 30 min; −: conversion less than 5% after 30 min) | –
O=C(O)c1ccc2[nH]nnc2c1 [5-Carboxy-1,2,3-benzotriazole] | ++ (key: +++: conversion greater than 70% after 30 min; ++: conversion greater than 40% after 30 min; +: conversion greater than 10% after 30 min; −: conversion less than 5% after 30 min) | + (key: +++: conversion greater than 70% after 30 min; ++: conversion greater than 40% after 30 min; +: conversion greater than 10% after 30 min; −: conversion less than 5% after 30 min) | –
O=c1[nH]oc(=O)[nH]1 [1,2,4-Oxadiazolidine-3,5-dione] | − (key: +++: conversion greater than 70% after 30 min; ++: conversion greater than 40% after 30 min; +: conversion greater than 10% after 30 min; −: conversion less than 5% after 30 min) | + (key: +++: conversion greater than 70% after 30 min; ++: conversion greater than 40% after 30 min; +: conversion greater than 10% after 30 min; −: conversion less than 5% after 30 min) | –
[SeH]c1ccccc1 [Phenylselenol] | ++ (key: +++: conversion greater than 70% after 30 min; ++: conversion greater than 40% after 30 min; +: conversion greater than 10% after 30 min; −: conversion less than 5% after 30 min) | +++ (key: +++: conversion greater than 70% after 30 min; ++: conversion greater than 40% after 30 min; +: conversion greater than 10% after 30 min; −: conversion less than 5% after 30 min) | –
Nc1nc2nn[nH]c2c(=O)[nH]1 [8-Azaguanine] | − (key: +++: conversion greater than 70% after 30 min; ++: conversion greater than 40% after 30 min; +: conversion greater than 10% after 30 min; −: conversion less than 5% after 30 min) | + (key: +++: conversion greater than 70% after 30 min; ++: conversion greater than 40% after 30 min; +: conversion greater than 10% after 30 min; −: conversion less than 5% after 30 min) | –
Sc1nccs1 [2-Mercaptothiazole] | ++ (key: +++: conversion greater than 70% after 30 min; ++: conversion greater than 40% after 30 min; +: conversion greater than 10% after 30 min; −: conversion less than 5% after 30 min) | +++ (key: +++: conversion greater than 70% after 30 min; ++: conversion greater than 40% after 30 min; +: conversion greater than 10% after 30 min; −: conversion less than 5% after 30 min) | –
Sc1nc[nH]n1 [3 Mercapto-1,2,4-triazole] | + (key: +++: conversion greater than 70% after 30 min; ++: conversion greater than 40% after 30 min; +: conversion greater than 10% after 30 min; −: conversion less than 5% after 30 min) | +++ (key: +++: conversion greater than 70% after 30 min; ++: conversion greater than 40% after 30 min; +: conversion greater than 10% after 30 min; −: conversion less than 5% after 30 min) | –
c1nc[nH]n1 [1,2,4-Triazole] | +++ (key: +++: conversion greater than 70% after 30 min; ++: conversion greater than 40% after 30 min; +: conversion greater than 10% after 30 min; −: conversion less than 5% after 30 min) | ++ (key: +++: conversion greater than 70% after 30 min; ++: conversion greater than 40% after 30 min; +: conversion greater than 10% after 30 min; −: conversion less than 5% after 30 min) | –
1,2-Pyrazole | ++ (key: +++: conversion greater than 70% after 30 min; ++: conversion greater than 40% after 30 min; +: conversion greater than 10% after 30 min; −: conversion less than 5% after 30 min) | ++ (key: +++: conversion greater than 70% after 30 min; ++: conversion greater than 40% after 30 min; +: conversion greater than 10% after 30 min; −: conversion less than 5% after 30 min) | –
CysM: Escherichia coli O-acetyl-L-serine sulfhydrylase with C-terminal StrepTagII, purified by affinity chromatography (protein, UniProt P16703 1-303, looked up) Cysteine synthase B: MSTLEQTIGNTPLVKLQRMGPDNGSEVWLKLEGNNPAGSVKDRAALSMIVEAEKRGEIKPGDVLIEATSGNTGIALAMIAALKGYRMKLLMPDNMSQERRAAMRAYGAELILVTKEQGMEGARDLALEMANRGEGKLLDQFNNPDNPYAHYTTTGPEIWQQTGGRITHFVSSMGTTGTITGVSRFMREQSKPVTIVGLQPEEGSSIPGIRRWPTEYLPGIFNASLVDEVLDIHQRDAENTMRELAVREGIFCGVSSGGAVAGALRVAKANPDAVVVAIICDRGDRYLSTGVFGEEHFSQGAGI | – | – | specific activity Acys (formation of cysteine using sulfide) [4]: 199 units/mg; specific activity AS-cys (formation of S-sulfocysteine using thiosulfate) ([4]; 10 mM sodium thiosulfate): 145 units/mg
CysK: Escherichia coli O-acetyl-L-serine sulfhydrylase with C-terminal StrepTagII, purified by affinity chromatography (protein, UniProt P0ABK5 2-323, looked up) Cysteine synthase A: SKIFEDNSLTIGHTPLVRLNRIGNGRILAKVESRNPSFSVKCRIGANMIWDAEKRGVLKPGVELVEPTSGNTGIALAYVAAARGYKLTLTMPETMSIERRKLLKALGANLVLTEGAKGMKGAIQKAEEIVASNPEKYLLLQQFSNPANPEIHEKTTGPEIWEDTDGQVDVFIAGVGTGGTLTGVSRYIKGTKGKTDLISVAVEPTDSPVIAQALAGEEIKPGPHKIQGIGAGFIPANLDLKLVDKVIGITNEEAISTARRLMEEEGILAGISSGAAVAAALKLQEDESFTNKNIVVILPSSGERYLSTALFADLFTEKELQQ | – | – | specific activity Acys (formation of cysteine using sulfide) [4]: 140 units/mg
